# Results as given in ChEMBL document CHEMBL5154669, “G-Quadruplex DNA as a Target in Pathogenic Bacteria: Efficacy of an Extended Naphthalene Diimide Ligand and Its Mode of Action” (J Med Chem, 2022).
# Test system: DNA
# Assay: Stabilization of Escherichia coli in G-quadruplex DNA GGG GCG GGG TGG GTT GG assessed as change in melting temperature at 10 uM incubated for 16 hrs by CD melting method
structure (smiles),measurement,value
CN(C)CCCn1c(=O)c2ccc3c(=O)n(CCCN(C)C)c(=O)c4c5[nH]c6ccccc6[nH]c5c(c1=O)c2c34.O=C(O)C(F)(F)F.O=C(O)C(F)(F)F,ΔTm,18.8 °C
